Measured values reported in patent US5518735A, “Meta-substituted phenylalanine derivatives” (priority 1990, dated 1996).
Counter-ions that a name gives are not always drawn. One block for each compound: values may come before it.

How the values were obtained:
[1] = target: T1, plasmin (Homo sapiens, UniProt P00747); assay: Inhibition of plasmin (Ki); format: biochemical; conditions: Table 26
T1 construct: trypsin and the related enzymes thrombin, plasmin, factor Xa, tPA

[2] = target: thrombin (Bos taurus, UniProt P00735); assay: Inhibition of thrombin (dissociation constant Ki); format: biochemical
[3] = target: T2, plasma kallikrein (Homo sapiens, UniProt P03952); assay: Inhibition of plasma kallikrein (Ki); format: biochemical; conditions: Table 26
T2 construct: glandular kallikrein, factor XIIa and plasma kallikrein
T2 sequence (P03952 391-638 limits assumed, species assumed): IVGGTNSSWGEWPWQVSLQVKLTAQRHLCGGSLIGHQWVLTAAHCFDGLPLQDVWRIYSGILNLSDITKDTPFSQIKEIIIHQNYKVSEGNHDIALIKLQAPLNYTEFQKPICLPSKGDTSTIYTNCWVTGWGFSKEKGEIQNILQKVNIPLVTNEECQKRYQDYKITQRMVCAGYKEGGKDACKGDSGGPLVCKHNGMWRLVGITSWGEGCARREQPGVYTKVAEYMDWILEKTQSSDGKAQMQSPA
T2 sequence (P03952 20-390 partner limits assumed, species assumed): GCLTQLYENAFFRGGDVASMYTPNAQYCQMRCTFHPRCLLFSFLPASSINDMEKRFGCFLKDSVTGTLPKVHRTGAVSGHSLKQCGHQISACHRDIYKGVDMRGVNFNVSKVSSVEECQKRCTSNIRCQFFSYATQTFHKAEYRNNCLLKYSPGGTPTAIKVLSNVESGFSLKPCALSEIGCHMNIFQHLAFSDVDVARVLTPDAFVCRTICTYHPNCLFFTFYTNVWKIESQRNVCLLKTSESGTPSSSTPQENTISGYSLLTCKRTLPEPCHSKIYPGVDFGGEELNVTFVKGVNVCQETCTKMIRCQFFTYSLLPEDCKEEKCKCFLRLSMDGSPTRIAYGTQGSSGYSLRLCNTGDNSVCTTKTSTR

[4] = target: factor Xa (Bos taurus, UniProt P00743); assay: Inhibition of factor Xa (dissociation constant Ki); format: biochemical; conditions: Tables 19-25; read-out: Ki, Factor Xa
Sequence of factor Xa (P00743 234-492 limits assumed): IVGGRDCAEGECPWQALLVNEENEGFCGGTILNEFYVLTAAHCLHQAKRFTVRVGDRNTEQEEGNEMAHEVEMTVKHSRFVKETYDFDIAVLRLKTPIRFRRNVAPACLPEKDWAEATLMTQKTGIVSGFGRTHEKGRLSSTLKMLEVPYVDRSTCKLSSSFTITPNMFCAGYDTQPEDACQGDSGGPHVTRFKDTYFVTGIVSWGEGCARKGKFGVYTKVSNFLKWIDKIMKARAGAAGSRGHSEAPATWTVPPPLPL
Sequence of factor Xa (P00743 41-180 partner limits assumed): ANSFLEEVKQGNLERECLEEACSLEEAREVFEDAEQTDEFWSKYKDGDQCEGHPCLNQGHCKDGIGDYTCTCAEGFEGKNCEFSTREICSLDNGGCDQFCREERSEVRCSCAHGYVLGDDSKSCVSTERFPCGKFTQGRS

[5] = Plasma concentration in rats after oral administration (HPLC); conditions: rat, plasma, po, 100 mg/kg
Protocol: (§1) For the pharmacokinetic characterization, the plasma concentration of selected derivatives was determined in rats after intravenous (i.v.), subcutaneous (s.c.) and peroral (p.o.) application according to the following three-step procedure:
(§2) 1. A physiological NaCl solution of the substance to be tested was submitted to high pressure liquid chromatography (HPLC) in order to determine its characteristic substance-specific retention time with the chosen test conditions.
(§3) 2. The substance to be tested was diluted in vitro in rat plasma. This solution was also submitted to HPLC to see whether the characteristic peak of the substance once again appeared at the substance-specific retention time.
(§4) 3. […] Blood samples were taken at time intervals of 15 minutes, from which plasma samples were prepared by centrifugation; those samples were also submitted to HPLC to see whether the characteristic peak of the substance appeared again at the substance-specific retention time.

[6] = in vivo; conditions: mouse
[7] = target: tPA (Homo sapiens, UniProt P00750); assay: Inhibition of tPA (Ki); format: biochemical; conditions: Table 26
Sequence of tPA (P00750 36-562): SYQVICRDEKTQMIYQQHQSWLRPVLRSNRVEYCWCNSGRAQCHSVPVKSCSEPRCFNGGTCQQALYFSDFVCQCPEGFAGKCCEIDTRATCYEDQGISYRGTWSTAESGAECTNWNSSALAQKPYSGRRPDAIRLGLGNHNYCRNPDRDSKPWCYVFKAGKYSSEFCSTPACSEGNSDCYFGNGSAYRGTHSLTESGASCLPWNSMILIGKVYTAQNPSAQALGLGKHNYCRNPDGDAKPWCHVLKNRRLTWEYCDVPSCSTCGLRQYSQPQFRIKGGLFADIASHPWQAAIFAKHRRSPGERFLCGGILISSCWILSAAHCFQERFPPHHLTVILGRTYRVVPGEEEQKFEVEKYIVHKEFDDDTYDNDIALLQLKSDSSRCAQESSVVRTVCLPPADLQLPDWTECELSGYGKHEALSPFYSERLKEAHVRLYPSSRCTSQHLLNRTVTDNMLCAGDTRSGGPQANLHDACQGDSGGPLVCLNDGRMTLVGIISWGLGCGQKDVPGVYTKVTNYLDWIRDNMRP

[8] = target: T3, trypsin (Bos taurus, UniProt P00760); assay: Inhibition of trypsin (Ki); format: biochemical; conditions: Table 26
T3 sequence (P00760 24-246): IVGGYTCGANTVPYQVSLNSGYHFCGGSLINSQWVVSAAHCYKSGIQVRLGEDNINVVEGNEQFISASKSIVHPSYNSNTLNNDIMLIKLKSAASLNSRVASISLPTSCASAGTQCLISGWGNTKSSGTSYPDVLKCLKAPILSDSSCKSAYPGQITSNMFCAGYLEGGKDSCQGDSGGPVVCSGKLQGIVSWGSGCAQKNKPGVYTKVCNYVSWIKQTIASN

[9] = Plasma concentration in rats after subcutaneous administration (HPLC); conditions: rat, plasma, sc, 5 mg/kg
Protocol: as §1, §2, §3, §4

[10] = target: glandular kallikrein (Sus scrofa, UniProt P00752); assay: Inhibition of glandular kallikrein (Ki); format: biochemical; conditions: Table 26; read-out: Ki, Gland. Kallikrein
Sequence of glandular kallikrein (P00752 8-246): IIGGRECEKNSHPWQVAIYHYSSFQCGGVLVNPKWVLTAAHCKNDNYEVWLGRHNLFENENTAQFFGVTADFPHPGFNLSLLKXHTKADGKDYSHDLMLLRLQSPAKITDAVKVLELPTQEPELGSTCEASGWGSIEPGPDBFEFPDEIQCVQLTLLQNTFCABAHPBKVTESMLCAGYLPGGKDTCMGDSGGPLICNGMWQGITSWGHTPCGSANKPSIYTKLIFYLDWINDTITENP

[11] = target: T4, factor XIIa (Homo sapiens, UniProt P00748); assay: Inhibition of factor XIIa (Ki); format: biochemical; conditions: Table 26
T4 construct: glandular kallikrein, factor XIIa and plasma kallikrein
T4 sequence (P00748 373-615 limits assumed): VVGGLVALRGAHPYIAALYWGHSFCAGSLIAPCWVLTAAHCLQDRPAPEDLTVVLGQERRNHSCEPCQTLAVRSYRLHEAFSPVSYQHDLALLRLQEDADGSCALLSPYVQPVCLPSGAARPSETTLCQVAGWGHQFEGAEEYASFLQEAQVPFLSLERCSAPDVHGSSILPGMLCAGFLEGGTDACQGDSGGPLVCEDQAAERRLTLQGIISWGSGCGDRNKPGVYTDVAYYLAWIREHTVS

[12] = Plasma concentration in rats after intravenous administration (HPLC)
Protocol: as §1, §2, §3, §4

[13] = cited from earlier work

T1 sequence (P00747 581-810 limits assumed): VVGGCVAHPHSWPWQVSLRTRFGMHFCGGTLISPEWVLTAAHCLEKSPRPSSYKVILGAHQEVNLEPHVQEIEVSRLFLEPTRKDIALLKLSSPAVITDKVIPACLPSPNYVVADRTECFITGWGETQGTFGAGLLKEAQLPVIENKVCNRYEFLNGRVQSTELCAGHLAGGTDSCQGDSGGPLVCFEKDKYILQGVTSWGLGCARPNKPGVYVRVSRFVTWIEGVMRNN
T1 sequence (P00747 97-580 partner limits assumed): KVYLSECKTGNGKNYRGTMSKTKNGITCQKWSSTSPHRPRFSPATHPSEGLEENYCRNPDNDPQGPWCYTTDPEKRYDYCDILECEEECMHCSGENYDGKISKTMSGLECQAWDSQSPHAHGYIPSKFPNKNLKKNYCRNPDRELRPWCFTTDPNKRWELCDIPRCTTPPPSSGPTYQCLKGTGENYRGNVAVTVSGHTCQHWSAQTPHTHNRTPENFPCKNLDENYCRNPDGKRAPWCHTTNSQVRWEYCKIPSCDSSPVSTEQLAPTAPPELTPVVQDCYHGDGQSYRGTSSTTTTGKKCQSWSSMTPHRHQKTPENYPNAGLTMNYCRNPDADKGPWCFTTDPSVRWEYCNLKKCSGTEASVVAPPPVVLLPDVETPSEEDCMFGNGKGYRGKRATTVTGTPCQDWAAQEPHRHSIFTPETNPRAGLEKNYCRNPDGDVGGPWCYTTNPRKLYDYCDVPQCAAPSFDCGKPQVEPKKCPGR

Compound: N=C(NO)c1cccc(CC(NS(=O)(=O)c2ccc3ccccc3c2)C(=O)N2Cc3ccccc3CC2C(=O)O)c1 (racemic) [Compound 190, N-α-(2-Naphthylsulfonyl)-3-oxamidino-(D,L)-phenylalanyl-1,2,3,4-tetrahydroisoquinoline-3-carboxylic acid hydroiodide]
Ki [1]: 120 µM
Ki [2]: 2.4 µM
Ki [3]: > 1000 µM
Ki [4]: 130 µM
concentration at 0.25 h [5]: 481 ng/mL
concentration at 0.5 h [5]: 1110 ng/mL
concentration at 0.75 h [5]: 796 ng/mL
concentration at 1 h [5]: 574 ng/mL
concentration at 2 h [5]: 542 ng/mL
concentration at 3 h [5]: 217 ng/mL
concentration at 4 h [5]: 113 ng/mL
concentration at 5 h [5]: 50 ng/mL
LD50 at 168 h ([6]; iv): > 150 mg/kg
LD50 at 168 h ([6]; po): > 3000 mg/kg
Ki [7]: > 1000 µM
Ki [8]: 27 µM
concentration at 0.25 h [9]: 340 ng/mL
concentration at 0.5 h [9]: 330 ng/mL
concentration at 0.75 h [9]: 374 ng/mL
concentration at 1 h [9]: 492 ng/mL
concentration at 1.5 h [9]: 354 ng/mL
concentration at 2 h [9]: 270 ng/mL
concentration at 3 h [9]: 165 ng/mL
concentration at 4 h [9]: 152 ng/mL
concentration at 5 h [9]: 138 ng/mL
concentration at 6 h [9]: 126 ng/mL
Ki [10]: > 1000 µM
Ki [11]: 460 µM
pharmacokinetic properties ([12]; in words, compared with NAPAP): improved pharmacokinetic properties
Concentration in plasma ([12]; rat, i.v. 1 mg/kg, 60 min): 0 ng/mL
concentration at 2 min ([12]; rat, plasma, iv, 1 mg/kg): 3260 ng/mL
concentration at 5 min ([12]; rat, plasma, iv, 1 mg/kg): 1610 ng/mL
concentration at 10 min ([12]; rat, plasma, iv, 1 mg/kg): 806 ng/mL
concentration at 0.25 h ([12]; rat, plasma, iv, 1 mg/kg): 496 ng/mL
concentration at 0.5 h ([12]; rat, plasma, iv, 1 mg/kg): 477 ng/mL
concentration at 0.75 h ([12]; rat, plasma, iv, 1 mg/kg): 134 ng/mL

Ki [1]: > 1000 µM
Ki [2]: 8.9 µM
Ki [3]: > 1000 µM
Ki [4]: 210 µM
Ki [7]: > 1000 µM
Ki [8]: > 1000 µM
Ki [10]: > 1000 µM
Ki [11]: 270 µM
Compound: CC1CCN(C(=O)C(Cc2cccc(N)c2)NS(=O)(=O)c2ccc3ccccc3c2)CC1 (racemic) [Compound 203]

Ki [1]: 17 µM
Ki [2]: 0.4 µM
Ki [3]: > 1000 µM
Ki [4]: 107 µM
Ki [7]: > 1000 µM
Ki [8]: 4.1 µM
Ki [10]: > 1000 µM
Ki [11]: > 1000 µM
Compound: N=C(N)Nc1cccc(CC(NS(=O)(=O)c2ccc3ccccc3c2)C(=O)N2CCCCC2)c1 (racemic) [Compound 207, N-α-(2-Naphthylsulfonyl)-3-quanidino-(D,L)-phenylalanine-piperidide hydrochloride]

Compound: COC(=O)[C@H]1CCCN1C(=O)[C@H](Cc1cccc(C(=N)N)c1)NS(=O)(=O)c1ccc2ccccc2c1 [Compound 124, N-α-(2-Naphthylsulfonyl)-3-amidino-(L)-phenylalanyl-(D)-proline-methyl ester hydrochloride]
Ki [1]: 11 µM
Ki [2]: 0.27 µM
Ki [3]: 29 µM
Ki [4]: 104 µM
LD50 at 168 h ([6]; iv): 80 mg/kg
LD50 at 168 h ([6]; po): > 3000 mg/kg
Ki [7]: 225 µM
Ki [8]: 3.4 µM
Ki [10]: > 1000 µM
Ki [11]: 600 µM

Compound: CN[C@H](Cc1ccccc1)C(=O)N1CCC[C@H]1C(=O)N[C@H](C=O)CCCN=C(N)N [N-methyl-D-Phe-Pro-Arg-H]
absorption after oral administration [13]: absorption after oral administration has so far only been observed

Compound: BOC-D-Phe-Pro-Boro-Arg-C10 H16
absorption after oral administration [13]: absorption after oral administration has so far only been observed
